Laboratory results published in patent publication US5424314A, “20,21-dinoreburnamenines” (Roussel-Uclaf, priority 1990, dated 1995).
Where a name gives a salt, the structure may show the parent alone.

Assays:
[1] = tested on: alpha 2 adrenergic receptors; test: Affinity for alpha 2 adrenergic receptors (H^3 rauwolscine displacement, cortex homogenate); type: binding, male rate (rat) brain cortices; settings: H^3 rauwolscine 0.15 nM, 45 minutes at 25° C., pH 7.4; concentrations inhibiting 50% of specific fixation compared with phentolamine
Procedure: 2 Affinity for Alpha 2 Adrenergic Receptors
10 cortices removed from the brains of male rate weighing on average 150 g were homogenized in 90 ml of 0.32M sucrose. After centrifuging the homogenized mixture at 1,000 g for 10 minutes at 0° C., the supernatant was centrifuged at 30,000 g for 10 minutes at 0° C.+4° C. The deposit was suspended in 240 ml of 50 mM Tris HCl pH 7.7 buffer and centrifuged at 30,000 g for 15 minutes at 0° C.+4° C. The new deposit was suspended in 480 ml of 50 mM NaKPO4 pH 7.4 buffer. Then 2 ml of suspension were incubated for 45 minutes at 25° C. in the presence of H^3 rauwolscine it a concentration of 0.15 nM:
i) on its own, ii) with increasing concentrations of the product under test or, iii) to determine the non-specific fixation, with non-radioactive phentolamine at a concentration of 10^-5 M.
The incubated suspensions were filtered on Whatman GF/C and the filters were washed three times with 5 ml of NaKPO4 pH 7.4 buffer at 0° C. The radioactivity of the filters was measured by liquid scintillation. The affinity of the product tested for the alpha 2 adrenergic receptors was determined relative to phentolamine as reference product.
CD=concentration of phentolamine inhibiting 50% of the specific fixation of H^3 rauwolscine;
CX=concentration of the product tested inhibiting 50% of the specific fixation of H^3 rauwolscine. […]

mouse = test: Acute toxicity: lethal dose LD0 after oral administration to a mouse; type: in vivo
Procedure: The lethal doses LD0 of the different compounds tested were evaluated after oral administration to a mouse.

[2] = tested on: mice of CD1, Charles River type; test: Hypobaric anoxia: survival time of mice subjected to a lethal hypoxic atmosphere; type: in vivo; settings: relative to vehicle control animals (70 to 80 seconds); male CD1 mice, depression of 620 mm Hg
Excerpt: The test consisted of measuring the survival time of mice subjected to a lethal hypoxic atmosphere in which male mice of CD1, Charles River type, weighing 20 to 25 grams, were placed individually in a 2 liter enclosure in which a depression of 620 mm Hg was brought about by means of a vacuum pump, according to the following kinetics: […]
______________________________________
The survival time was the time between the start of the depression (T0) and the last respiratory movement; it was on the order of 70 to 80 seconds on the control animals. The results are given as a percentage of the increase in the survival time relative to the control animals who received the vehicle.

Row | SMILES | RBA (relative affinity, relative to phentolamine as reference product) [1] | LD0 (maximum dose which did not cause any mortality in 8 days) (mouse) | % increase of survival time [2]
1 | C=Cc1ccc2c3c4n(c2c1)C=CC1CCCN(CC3)C41 (racemic) [Example 1, [16 α(±)]-11-ethenyl-20,21-dinoreburnamenine maleate] | 31 | ≥ 400 | –
2 | CC(=O)c1ccc2c3c4n(c2c1)C=CC1CCCN(CC3)C41 (racemic) [Example 4, [16α(±)]-11-acetyl-20,21-dinoreburnamenine acid maleate] | – | 100 | +22%
3 | CC(O)c1ccc2c3c4n(c2c1)C=CC1CCCN(CC3)C41 (racemic) [Example 5] | – | 100 | +21%
4 | NC(=O)c1ccc2c3c4n(c2c1)C=CC1CCCN(CC3)C41 (racemic) [Example 10, [16α(±)]-20,21-dinoreburnamenine-11-carboxamide] | – | – | +22%
